Drawing on patent US10721934B2, “Enhanced preservative” (Arch Chemicals, Inc., priority 2013, dated 2020), this text covers MIC and streak plate rating for one molecule.

Each structure is given as a SMILES string.

Holding throughout (type): cell-based
In one experiment the test system is Escherichia coli. The experiment can be described thus: MIC test, 96 well microtiter plate. Particulars: Escherichia coli, read-out: Minimum Inhibitory Concentration. The procedure:
(§1) MIC set up: A 96 well microtiter plate Minimum Inhibitory Concentration (MIC) test was run in broth suitable for the test organism. Serially diluted actives were prepared in sterilized water, and the start-up concentration varied depending on the efficacy range. Inocula prepared in 2× suitable broth was added into each well, and the final concentrations of bacteria were adjusted to approximately 5×10^5.
(§2) Further MIC tests were conducted using different amine compounds in combination with a pyrithione and two different isothiazolinones. The procedures described in Example No. 1 were used.

For a further experiment, the system named is Candida albicans. The experiment can be described thus: MIC test, 96 well microtiter plate. Particulars: Candida albicans, read-out: Minimum Inhibitory Concentration. The procedure:
as §1, §2

The next experiment has as its system Staphylococcus aureus. The experiment can be described thus: MIC test, 96 well microtiter plate. The conditions noted are these: Staphylococcus aureus, read-out: Minimum Inhibitory Concentration. The procedure: as §1, §2
For another experiment, the system named is Aspergillus brasiliensis. The experiment can be described thus: MIC test, 96 well microtiter plate. Particulars: Aspergillus brasiliensis, read-out: Minimum Inhibitory Concentration. Here is the method:
as §1, §2

For the next experiment, the system named is Aureobasidium pullulans. Put plainly: MIC test, 96 well microtiter plate. Particulars: Aureobasidium pullulans, read-out: Minimum Inhibitory Concentration. The procedure:
as §1, §2

Experiment [1] has as its system mixed bacterial inoculum (Pseudomonas aeruginosa, Enterobacter cloacae, Escherichia coli, Acinetobacter calcoaceticus). The experiment can be described thus: Repeated inoculation of standard acrylic paint, streak plate rating. Here is the method:
In the following experiments, a pyrithione, an isothiazolinone, and a biocide enhancing agent in accordance with the present disclosure were combined with a standard acrylic paint. The concentrations of the pyrithione, the isothiazolinone and the biocide enhancing agent were varied. The pyrithione, the isothiazolinone and the biocide enhancing agent were added alone and in various mixtures to the standard acrylic paint.
The acrylic paint was then inoculated three times using a mixed bacterial inoculum. The bacterial inoculum, which comprised a bacterial suspension in water, contained the following four bacteria in equal proportions.
The samples were streak plated at 24, 48, and 72 hours after inoculation. The streak plates were rated as follows;

Regarding `CCCCCCCCCCCC[N+](C)(C)[O-]` [CDMA Oxide, cocodimethylamine oxide], the MIC came out at 557 µg/mL with Escherichia coli; 13.9 µg/mL in the experiment with Candida albicans; 13.9 µg/mL with Staphylococcus aureus; 17.4 µg/mL in the experiment on Aspergillus brasiliensis; 13.9 µg/mL in the experiment on Aureobasidium pullulans. The streak plate rating was 5 (>45 viable microorganisms Severely contaminated) in experiment [1] (Set Five, CDMA Oxide 1200 ppm, 1st inoculation 24 h); 5 (>45 viable microorganisms Severely contaminated) in experiment [1] (Set Five, CDMA Oxide 1200 ppm, 1st inoculation 48 h); 5 (>45 viable microorganisms Severely contaminated) in experiment [1] (Set Five, CDMA Oxide 1200 ppm, 1st inoculation 72 h); 5 (>45 viable microorganisms Severely contaminated) in experiment [1] (Set Five, CDMA Oxide 1200 ppm, 2nd inoculation 24 h); 5 (>45 viable microorganisms Severely contaminated) in experiment [1] (Set Five, CDMA Oxide 1200 ppm, 2nd inoculation 48 h); 5 (>45 viable microorganisms Severely contaminated) in experiment [1] (Set Five, CDMA Oxide 1200 ppm, 2nd inoculation 72 h). In addition, the streak plate rating in experiment [1] (Set Five, CDMA Oxide 1200 ppm, 3rd inoculation 24 h) is 5 (>45 viable microorganisms Severely contaminated); in experiment [1] (Set Five, CDMA Oxide 1200 ppm, 3rd inoculation 48 h), 5 (>45 viable microorganisms Severely contaminated); in experiment [1] (Set Five, CDMA Oxide 1200 ppm, 3rd inoculation 72 h) it was 5 (>45 viable microorganisms Severely contaminated); in experiment [1] (Set Two, CDMA Oxide alone, ppm not given, 1st inoculation 24 h), 5 (>45 viable microorganisms Severely contaminated); in experiment [1] (Set Two, CDMA Oxide alone, ppm not given, 1st inoculation 48 h) it was 5 (>45 viable microorganisms Severely contaminated); in experiment [1] (Set Two, CDMA Oxide alone, ppm not given, 1st inoculation 72 h) it was 5 (>45 viable microorganisms Severely contaminated). Also, the streak plate rating in experiment [1] (Set Two, CDMA Oxide alone, ppm not given, 2nd inoculation 24 h) is 5 (>45 viable microorganisms Severely contaminated); in experiment [1] (Set Two, CDMA Oxide alone, ppm not given, 2nd inoculation 48 h), 5 (>45 viable microorganisms Severely contaminated); in experiment [1] (Set Two, CDMA Oxide alone, ppm not given, 2nd inoculation 72 h) it was 5 (>45 viable microorganisms Severely contaminated); in experiment [1] (Set Two, CDMA Oxide alone, ppm not given, 3rd inoculation 24 h), 5 (>45 viable microorganisms Severely contaminated); in experiment [1] (Set Two, CDMA Oxide alone, ppm not given, 3rd inoculation 48 h), 5 (>45 viable microorganisms Severely contaminated); in experiment [1] (Set Two, CDMA Oxide alone, ppm not given, 3rd inoculation 72 h), 5 (>45 viable microorganisms Severely contaminated).
